Results: BigSolDB 2.1

O=C(OCC1c2ccccc2-c2ccccc21)ON1C(=O)CCC1=O
solubility (mole fraction)
Conditions | 283.15 K | 288.15 K | 293.15 K | 298.15 K | 303.15 K | 308.15 K | 313.15 K | 318.15 K | 323.15 K | 328.15 K
in DMF | 0.00369 | 0.00533 | 0.00719 | 0.00964 | 0.0132 | 0.0177 | 0.023 | 0.0298 | 0.0387 | 0.0499
in DMSO | – | – | 0.00499 | 0.00641 | 0.0084 | 0.0107 | 0.0134 | 0.0167 | 0.0208 | 0.0257
in ethanol | 0.000477 | 0.000571 | 0.000687 | 0.000824 | 0.000979 | 0.00115 | 0.00134 | 0.00155 | 0.00177 | 0.00205
in ethylene glycol | 0.000151 | 0.00019 | 0.000241 | 0.000314 | 0.000396 | 0.00049 | 0.000611 | 0.000748 | 0.00092 | 0.00111
in water | – | – | 5.77e-06 | 7.38e-06 | 9.44e-06 | 1.19e-05 | 1.49e-05 | 1.84e-05 | 2.28e-05 | 2.78e-05
